Here are results for one compound from paper PMC3058872 (Archives of biochemistry and biophysics, 2010).

Experiment [1] addresses T1, EI^Ntr (Enzyme I^Ntr) (Escherichia coli, UniProt P37177, H356A). Put plainly: intrinsic Trp fluorescence titration. The format is binding.
Experiment [2] addresses T1, EI^Ntr (Enzyme I^Ntr). Description: thermal unfolding followed by Trp fluorescence. The class given is binding. Conditions: hydrogenated protein, 150 μM PEP, 20 mM Tris-Cl pH 8, 2 mM MgCl2, scan 30 °C/h.

T1 sequence (P37177 170-748 H356A limits assumed): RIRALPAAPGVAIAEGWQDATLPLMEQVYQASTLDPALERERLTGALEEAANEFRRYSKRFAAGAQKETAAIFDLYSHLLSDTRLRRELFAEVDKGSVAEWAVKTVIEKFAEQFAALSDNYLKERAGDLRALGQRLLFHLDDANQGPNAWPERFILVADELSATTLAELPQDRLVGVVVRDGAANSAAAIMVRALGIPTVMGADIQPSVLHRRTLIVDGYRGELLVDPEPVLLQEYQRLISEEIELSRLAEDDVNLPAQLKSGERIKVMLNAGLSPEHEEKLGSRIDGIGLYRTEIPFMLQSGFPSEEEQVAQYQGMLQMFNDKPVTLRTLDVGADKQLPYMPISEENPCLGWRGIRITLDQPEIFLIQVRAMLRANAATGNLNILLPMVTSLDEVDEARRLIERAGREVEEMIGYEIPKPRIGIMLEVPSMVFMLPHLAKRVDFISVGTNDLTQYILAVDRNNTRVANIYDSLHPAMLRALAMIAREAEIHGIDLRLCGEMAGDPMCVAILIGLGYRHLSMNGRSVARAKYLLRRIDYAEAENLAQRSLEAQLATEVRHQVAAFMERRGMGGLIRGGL

`C=C(OP(=O)(O)O)C(=O)O` [PEP]: the affinity in experiment [1], expressed as Kd, was 21 µM. In addition, in experiment [2], the “stabilization due to PEP binding (dTm)” value was determined as 4.04 °C.
